Key:
[1] = biological target: T1, Serine/threonine-protein kinase Chk2 (Homo sapiens, UniProt O96017)
Description: Inhibition of CHK2 assessed as inhibition of substrate phosphorylation using fluorescent peptide substrate by microplate reader assay

DU-145 = assay: Growth inhibition of human DU145 cells after 48 hrs by SRB assay; type: functional; details: DU-145, 48 h
RPMI-8226 = assay: Growth inhibition of human RPMI8226 cells after 48 hrs by SRB assay; type: functional; details: RPMI-8226, 48 h
T47D = assay: Growth inhibition of human T47D cells after 48 hrs by SRB assay; type: functional
MDA-MB-435 = assay: Growth inhibition of human MDA-MB-435 cells after 48 hrs by SRB assay; type: functional; details: MDA-MB-435, 48 h
K562 = assay: Growth inhibition of human K562 cells after 48 hrs by SRB assay; type: functional; details: K562, 48 h
[2] = biological target: T2, Ribosomal protein S6 kinase alpha-3 (Homo sapiens, UniProt P51812)
T2 sequence (P51812 whole entry): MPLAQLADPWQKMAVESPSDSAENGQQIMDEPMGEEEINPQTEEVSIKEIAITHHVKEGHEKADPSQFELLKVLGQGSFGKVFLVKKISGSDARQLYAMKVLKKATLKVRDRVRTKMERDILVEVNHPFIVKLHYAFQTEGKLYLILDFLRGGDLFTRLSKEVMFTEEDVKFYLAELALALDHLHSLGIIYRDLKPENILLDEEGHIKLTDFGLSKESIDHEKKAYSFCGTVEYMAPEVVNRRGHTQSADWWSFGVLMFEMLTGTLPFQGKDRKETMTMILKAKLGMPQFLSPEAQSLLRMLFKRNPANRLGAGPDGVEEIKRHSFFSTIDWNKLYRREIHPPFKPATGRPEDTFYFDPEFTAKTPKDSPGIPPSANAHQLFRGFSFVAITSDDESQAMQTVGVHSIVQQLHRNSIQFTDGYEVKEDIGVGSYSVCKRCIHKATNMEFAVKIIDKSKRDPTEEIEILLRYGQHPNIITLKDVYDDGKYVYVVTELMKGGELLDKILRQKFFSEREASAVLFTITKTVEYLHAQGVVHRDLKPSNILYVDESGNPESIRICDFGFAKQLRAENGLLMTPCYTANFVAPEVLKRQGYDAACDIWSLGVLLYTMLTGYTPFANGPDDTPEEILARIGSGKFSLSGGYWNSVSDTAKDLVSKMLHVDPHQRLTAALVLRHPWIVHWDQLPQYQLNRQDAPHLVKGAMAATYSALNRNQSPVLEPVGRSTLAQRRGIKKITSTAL
Description: Inhibition of RSK2 assessed as inhibition of substrate phosphorylation using fluorescent peptide substrate by microplate reader assay

BT-549 = assay: Growth inhibition of human BT549 cells after 48 hrs by SRB assay; type: functional; details: BT-549, 48 h
KM12 = assay: Growth inhibition of human KM12 cells after 48 hrs by SRB assay; type: functional; details: KM12, 48 h
NCI-H23 = assay: Growth inhibition of human NCI-H23 cells after 48 hrs by SRB assay; type: functional; details: NCI-H23, 48 h
NCI-H460 = assay: Growth inhibition of human NCI-H460 cells after 48 hrs by SRB assay; type: functional; details: NCI-H460, 48 h
SF-268 = assay: Growth inhibition of human SF268 cells after 48 hrs by SRB assay; type: functional; details: SF-268, 48 h
SN12C = assay: Growth inhibition of human SN12C cells after 48 hrs by SRB assay; type: functional
HOP-62 = assay: Growth inhibition of human HOP62 cells after 48 hrs by SRB assay; type: functional; details: HOP-62, 48 h
SNB-19 = assay: Growth inhibition of human SNB19 cells after 48 hrs by SRB assay; type: functional; details: SNB-19, 48 h
HOP-92 = assay: Growth inhibition of human HOP92 cells after 48 hrs by SRB assay; type: functional; details: HOP-92, 48 h
U-251 = assay: Growth inhibition of human U251 cells after 48 hrs by SRB assay; type: functional; details: U-251, 48 h
EKVX = assay: Growth inhibition of human EKVX cells after 48 hrs by SRB assay; type: functional
[3] = biological target: T1, Serine/threonine-protein kinase Chk2; remark: listed apart in the source
RXF 393 = assay: Growth inhibition of human RXF393 cells after 48 hrs by SRB assay; type: functional; details: RXF 393, 48 h
UO-31 = assay: Growth inhibition of human UO31 cells after 48 hrs by SRB assay; type: functional; details: UO-31, 48 h
[4] = biological target: Ribosomal protein S6 kinase alpha-1 (Homo sapiens, UniProt Q15418)
Sequence of Ribosomal protein S6 kinase alpha-1 (Q15418 whole entry): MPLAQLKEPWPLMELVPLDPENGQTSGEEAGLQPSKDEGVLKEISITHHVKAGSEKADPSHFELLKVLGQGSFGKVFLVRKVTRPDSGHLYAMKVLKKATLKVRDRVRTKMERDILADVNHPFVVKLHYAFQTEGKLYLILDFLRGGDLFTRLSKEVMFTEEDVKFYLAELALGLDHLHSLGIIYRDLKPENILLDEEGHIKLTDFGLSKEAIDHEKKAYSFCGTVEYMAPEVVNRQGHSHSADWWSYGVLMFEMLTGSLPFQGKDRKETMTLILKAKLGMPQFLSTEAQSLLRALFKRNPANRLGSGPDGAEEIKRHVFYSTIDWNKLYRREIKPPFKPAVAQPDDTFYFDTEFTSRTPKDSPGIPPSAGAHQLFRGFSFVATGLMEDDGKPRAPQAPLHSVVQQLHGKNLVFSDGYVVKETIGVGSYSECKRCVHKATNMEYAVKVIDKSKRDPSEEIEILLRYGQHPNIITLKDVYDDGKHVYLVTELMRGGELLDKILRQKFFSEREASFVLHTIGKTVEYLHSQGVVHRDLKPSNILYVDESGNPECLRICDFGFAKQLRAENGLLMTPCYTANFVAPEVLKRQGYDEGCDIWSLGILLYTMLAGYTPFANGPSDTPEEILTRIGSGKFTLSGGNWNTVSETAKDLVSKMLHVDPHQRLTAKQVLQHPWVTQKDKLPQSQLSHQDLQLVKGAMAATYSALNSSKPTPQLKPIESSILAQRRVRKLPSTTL

SF-295 = assay: Growth inhibition of human SF295 cells after 48 hrs by SRB assay; type: functional; details: SF-295, 48 h
Malme-3M = assay: Growth inhibition of human MALME-3M cells after 48 hrs by SRB assay; type: functional
SF-539 = assay: Growth inhibition of human SF539 cells after 48 hrs by SRB assay; type: functional; details: SF-539, 48 h
SNB-75 = assay: Growth inhibition of human SNB75 cells after 48 hrs by SRB assay; type: functional; details: SNB-75, 48 h
HL-60(TB) = assay: Growth inhibition of human HL-60(TB) cells after 48 hrs by SRB assay; type: functional; details: HL-60, 48 h
[5] = biological target: T3, Serine/threonine-protein kinase Chk1 (Homo sapiens, UniProt O14757)
T3 sequence (O14757 whole entry): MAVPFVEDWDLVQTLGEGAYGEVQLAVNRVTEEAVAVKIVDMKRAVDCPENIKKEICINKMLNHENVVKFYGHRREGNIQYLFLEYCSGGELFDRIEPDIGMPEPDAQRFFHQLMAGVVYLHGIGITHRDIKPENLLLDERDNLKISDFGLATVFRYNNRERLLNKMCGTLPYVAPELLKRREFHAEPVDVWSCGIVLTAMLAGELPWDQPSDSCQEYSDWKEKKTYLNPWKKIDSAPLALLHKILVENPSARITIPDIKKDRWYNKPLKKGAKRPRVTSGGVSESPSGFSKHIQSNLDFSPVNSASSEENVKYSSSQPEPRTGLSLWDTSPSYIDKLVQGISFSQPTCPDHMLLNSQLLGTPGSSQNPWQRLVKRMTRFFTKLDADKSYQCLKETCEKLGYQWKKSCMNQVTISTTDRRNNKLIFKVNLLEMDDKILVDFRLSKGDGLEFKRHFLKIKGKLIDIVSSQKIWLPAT

A498 = assay: Growth inhibition of human A498 cells after 48 hrs by SRB assay; type: functional; details: A498, 48 h
SK-MEL-28 = assay: Growth inhibition of human SK-MEL-28 cells after 48 hrs by SRB assay; type: functional; details: SK-MEL-28, 48 h
MDA-MB-468 = assay: Growth inhibition of human MDA-MB-468 cells after 48 hrs by SRB assay; type: functional; details: MDA-MB-468, 48 h
[6] = biological target: T2, Ribosomal protein S6 kinase alpha-3; remark: listed apart in the source
[7] = read-out: pLC50 (the source's name) (converted)

T1 sequence (O96017 whole entry): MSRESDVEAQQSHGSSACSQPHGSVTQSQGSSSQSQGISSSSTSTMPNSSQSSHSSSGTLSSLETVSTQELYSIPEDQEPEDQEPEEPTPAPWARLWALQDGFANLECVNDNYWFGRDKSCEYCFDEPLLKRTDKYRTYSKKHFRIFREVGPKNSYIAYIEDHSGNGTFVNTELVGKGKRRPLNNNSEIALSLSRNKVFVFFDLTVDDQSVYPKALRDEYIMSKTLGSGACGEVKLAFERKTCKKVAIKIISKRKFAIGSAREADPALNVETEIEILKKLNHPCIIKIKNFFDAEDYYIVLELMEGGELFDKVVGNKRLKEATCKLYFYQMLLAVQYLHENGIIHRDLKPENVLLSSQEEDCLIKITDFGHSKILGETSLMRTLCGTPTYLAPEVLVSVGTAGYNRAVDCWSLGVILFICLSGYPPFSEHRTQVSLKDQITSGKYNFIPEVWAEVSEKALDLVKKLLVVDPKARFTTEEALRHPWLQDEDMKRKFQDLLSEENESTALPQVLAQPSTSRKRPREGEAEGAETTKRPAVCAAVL

N=C(N)N/N=C\c1c(-c2ccc([N+](=O)[O-])cc2)nc2sc(Br)cn12
IC50 [1]: 88500 nM | GI50 (DU-145): 200 nM | CC50 (DU-145; [7]): 813 nM | TGI (DU-145; read-out: pTGI (converted)): 398 nM | GI50 (RPMI-8226): 178 nM | TGI (RPMI-8226; read-out: pTGI (converted)): 417 nM | GI50 (T47D): 170 nM | TGI (T47D; read-out: pTGI (converted)): 3630 nM | GI50 (MDA-MB-435): 251 nM | CC50 (MDA-MB-435; [7]): 5370 nM | TGI (MDA-MB-435; read-out: pTGI (converted)): 7410 nM | GI50 (K562): 40.7 nM | IC50 [2]: 1230 nM | GI50 (BT-549): 186 nM | CC50 (BT-549; [7]): 7240 nM | TGI (BT-549; read-out: pTGI (converted)): 3630 nM | GI50 (KM12): 200 nM | CC50 (KM12; [7]): 759 nM | TGI (KM12; read-out: pTGI (converted)): 389 nM | GI50 (NCI-H23): 389 nM | CC50 (NCI-H23; [7]): 3980 nM | TGI (NCI-H23; read-out: pTGI (converted)): 4470 nM | GI50 (NCI-H460): 229 nM | CC50 (NCI-H460; [7]): 1820 nM | TGI (NCI-H460; read-out: pTGI (converted)): 501 nM | GI50 (SF-268): 219 nM | TGI (SF-268; read-out: pTGI (converted)): 447 nM | GI50 (SN12C): 617 nM | CC50 (SN12C; [7]): 5890 nM | TGI (SN12C; read-out: pTGI (converted)): 2820 nM | GI50 (HOP-62): 191 nM | CC50 (HOP-62; [7]): 851 nM | TGI (HOP-62; read-out: pTGI (converted)): 3980 nM | GI50 (SNB-19): 380 nM | CC50 (SNB-19; [7]): 5010 nM | TGI (SNB-19; read-out: pTGI (converted)): 4790 nM | GI50 (HOP-92): 676 nM | CC50 (HOP-92; [7]): 5130 nM | TGI (HOP-92; read-out: pTGI (converted)): 2630 nM | GI50 (U-251): 195 nM | CC50 (U-251; [7]): > 100000 nM | GI50 (EKVX): 1070 nM | CC50 (EKVX; [7]): 7410 nM | TGI (EKVX; read-out: pTGI (converted)): 4470 nM | IC50 [3]: 1960 nM | GI50 (RXF 393): 186 nM | CC50 (RXF 393; [7]): 759 nM | TGI (RXF 393; read-out: pTGI (converted)): 372 nM | GI50 (UO-31): 174 nM | CC50 (UO-31; [7]): 676 nM | TGI (UO-31; read-out: pTGI (converted)): 355 nM | IC50 [4]: 1180 nM | GI50 (SF-295): 575 nM | CC50 (SF-295; [7]): 6310 nM | TGI (SF-295; read-out: pTGI (converted)): 4470 nM | GI50 (Malme-3M): 1000 nM | TGI (Malme-3M; read-out: pTGI (converted)): 4170 nM | GI50 (SF-539): 372 nM | CC50 (SF-539; [7]): 3720 nM | TGI (SF-539; read-out: pTGI (converted)): 1260 nM | GI50 (SNB-75): 204 nM | CC50 (SNB-75; [7]): 1290 nM | TGI (SNB-75; read-out: pTGI (converted)): 4680 nM | GI50 (HL-60(TB)): 219 nM | IC50 [5]: 13800 nM | GI50 (A498): 1580 nM | CC50 (A498; [7]): 6030 nM | TGI (A498; read-out: pTGI (converted)): 3090 nM | GI50 (SK-MEL-28): 191 nM | CC50 (SK-MEL-28; [7]): 676 nM | TGI (SK-MEL-28; read-out: pTGI (converted)): 363 nM | GI50 (MDA-MB-468): 158 nM | CC50 (MDA-MB-468; [7]): 646 nM | TGI (MDA-MB-468; read-out: pTGI (converted)): 3240 nM | IC50 [6]: 607 nM

— ChEMBL document CHEMBL1909514, “Imidazo[2,1-b]thiazole guanylhydrazones as RSK2 inhibitors” (Eur J Med Chem, 2011)
